The test system of experiment [1] is nontransformed lung fibroblast (MRC-5).
Text: (§1) IC50 is the concentration at which 50% growth inhibition is obtained and E max represents the efficacy of the compound at its maximum concentration, expressed as the maximum % cell inhibition achieved by the compound (see Section S6 and Figure S8 of the Supporting Information).
(§2) General method: cell lines and grown conditions
(§3) Non-small lung carcinoma NCI-H460, human colon carcinoma HCT-116, human glioma SF-268
(§4) and doxorubicin-resistance human mamma carcinoma NCI/ADR-RES cell lines, as well as
(§5) Eagle’s Minimal Essential Medium (EMEM) and RPMI1640 were purchased from the American Tissue Culture Collection (ATCC). Frozen cells were thawed in a 75 cm2 cell culture flask in RPMI
(§6) supplemented with 2 mM L-glutamine and 10% FBS and maintained at 37 °C in a 5% CO2
(§7) The inhibition of cell proliferation induced by the samples [1/Cu(II), 1 eq. cyclopeptide 1/3 eq. of
(§8) Cu(II); 2/Cu(II), 1 eq. cyclopeptide 2/5 eq. of Cu(II)]‚ was carried out by using MTT method for
(§9) HCT-116, NCI/ADR-RES and NCI-H460 cell lines. SF-268 cell growth inhibition induced by the
(§10) samples was assessed using a system based on crystal violet cell staining and subsequent
(§11) acetylation. Cells were seeded in a 96-well microplate (5000 cells/well for HCT-116, 10000
(§12) cells/well for SF-268 and 15000 cells/well for NCI/ADR-RES and NCI-H460 cell lines) in 100 μl
(§13) of growth medium and maintained at 37 °C for 24 h.
(§14) Then growth medium was replaced by fresh medium containing different concentrations of the
(§15) samples to be assayed and maintained at 37 °C in a 5% CO2 atmosphere for 48 h. After this
(§16) time, 10 μL MTT (5 mg/ml in PBS) were added to each well and maintained for 4 h at 37 °C in a
(§17) 5% CO2 atmosphere. Then 100 μL of 10% SDS in 0.01 M HCl were added to each well an
(§18) incubated for 12-14 h under the same experimental conditions. Absorbance due to formation
(§19) was detected in a Tecan infinity M1000 Pro reader using a wavelength of 595 nm. All assays
were performed with triplicate points.
b) Crystal violet cell staining
(§20) The samples dissolved in water were added, maintaining the same proportion of water in each
(§21) well (10%). After 72 h (at 37°C and in an atmosphere of 5% CO 2/95% air), the cells were fixed to
(§22) the plate with 10 μL of 11% glutaraldehyde solution, kept under agitation at room temperature,
(§23) for 15 minutes. Once fixed, the medium was removed and the cells were washed 3-4 times with
(§24) distilled water, followed by staining of the cells with 100 μL of a 0.1% crystal violet solution. This
(§25) solution was prepared by diluting 0.1g of crystal violet in 100 mL of buffer composed of 200 mM
(§26) phosphoric acid, 200 mM formic acid and 200 mM 2-(N-morpholino)-ethane sulphonic acid
(§27) (MES) at pH 6. The plate was kept shaking at room temperature for 15 minutes. The dye was
(§28) removed, washed 3-4 times with distilled water and dried. 100 μL of 10% acetic acid was then
(§29) added and kept under agitation for 15 minutes, at room temperature, so that the staining was
(§30) homogeneous in all wells. Finally, an absorbance reading of the plates was performed at a
(§31) wavelength of 595 nm (Tecan M1000 Infinite Pro). The assay was performed with triplicate points.
(§32) Data were expressed as the growth inhibition percentage calculated in basis on the equation: %
(§33) inhibition= 100 – [(AO × 100) / AT]. Where AT is the measured absorbance in wells containing
(§34) compounds and AO is the absorbance measured in blank wells (cells with medium and vehicle).
(§35) The inhibitory potency of compounds was calculated by constructing concentration-% growth
(§36) inhibition curves, and extrapolating IC50 values (concentration of compound that inhibits cells
The test system of experiment [2] is HCT-116 (colon carcinoma). The following applies: 48 h.
Text: as §1, §2, §3, §4, §5, §6, §7, §8, §9, §10, §11, §12, §13, §14, §15, §16, §17, §18, §19
were performed with triplicate points.
b) Crystal violet cell staining
as §20, §21, §22, §23, §24, §25, §26, §27, §28, §29, §30, §31, §32, §33, §34, §35, §36
The subject of a further experiment is SF-268 (human glioma). The following applies: 72 h.
The nature of experiment [3]: Fluorescence titration of cyclopeptides with Cu(II) ions (DynaFit fit). The format is binding. As to conditions: 2 μM cyclopeptide, 1 mM phosphate buffer, 10 mM NaCl, pH 6.5; 1: 1:2 model (cyclopeptide:metal); 2: simplified model with 1:1 and 2:1 species; read-out: global dissociation constant K D. The text has this:
While the 2,2′-bipyridine ligand is known to be weakly emissive and for all practical purposes considered nonfluorescent, , the 5′-amido-[2,2′-bipyridine]-5-carboxamide unit in the βAlaBpy building block is highly emissive, displaying an intense emission band at c.a. 410 nm with a quantum yield of 0.37. Furthermore, the fluorescence of the βAlaBpy units is quenched upon coordination to a wide range of divalent transition metal ions. We exploited this property to monitor the coordinative properties of cyclopeptides 1 and 2 in the presence of labile Cu(II) ions in aqueous media. Thus, we measured the emission spectra of 2 μM solutions of the cyclopeptides 1 and 2 in 1 mM phosphate buffer and 10 mM NaCl, pH 6.5, upon excitation at 308 nm in the presence of increasing concentrations of Cu(II) ions. […] Therefore, the affinity of the first part of the titrations cannot be determined with this experiment as it is too strong. […]
5.2. Fluorescence titration experiments
Luminescence experiments were made with a Varian Cary Eclipse Fluorescence spectrophotometer coupled to a Cary Single Cell Peltier accessory (Agilent Technologies) temperature controller. […]
emission spectrum was recorded (λex= 308 nm; λem= 410 nm) after each addition. […]

Experiment [4] concerns NCI/ADR-RES cells. Put plainly: ICP-MS internalization study (intracellular Cu accumulation). It counts as cell-based. The following applies: 1 µM compound, 48 h, metallopeptides 1 eq. cyclopeptide + 1 eq. Cu(II). As for the experimental part:
To evaluate the ability of the Cu(II) metallopeptide systems to internalize in cancer cells, ICP-MS studies were performed in NCI/ADR-RES cells after 48 h of incubation with cyclopeptides 1 and 2, as well as their corresponding 1/Cu(II) and 2/Cu(II) metallopeptide derivatives formed by mixing each cyclopeptide with 1 equiv Cu(II), and using CuCl2·2H2O both as a Cu(II) source and a control.
7.1. General methods and materials
ICP Measurements were conducted employing an Agilent 7900 ICP-MS system (Agilent Technologies, Tokyo, Japan). The sample introduction system was comprised of an autosampler, a double-pass spray chamber with Peltier system, a glass concentric nebulizer (MicroMist low-flow nebulizer, Glass Expansion, West Melbourne, Australia), and a quartz torch.
Quantification of copper concentrations was achieved using Agilent ICP-MS MassHunter 5.1, (Version D.01.01 Agilent Technologies, Tokyo, Japan). The parameters for the ICP-MS device were as follows: RF Power, 1550 W; Sample Depth, 8; Carrier Gas, 1.1 L/min; Nebulizer Pump […]
Roswell Park Memorial Institute 1640 medium (RPMI), fetal bovine serum (FBS), penicillin, and streptomycin were purchased from Invitrogen Thermo Fisher.
Ovarian tumour NCI/ADR-RES cells, obtained from the European Collection of Authenticated Cell Cultures (ECACC), were cultured at 37 °C in a 5% CO2 atmosphere in RPMI medium containing 10% FBS and supplemented with 50 U/mL penicillin and 50 U/mL streptomycin, in 75 cm2 cell culture flasks. All cell experiments were performed at 37 °C in a 5% CO 2 atmosphere with this modified RPMI, referred as “medium” or “culture medium”.
7.3. […]
The culture medium was then replaced with 3 mL of fresh medium containing 1 µM of the compound [Cu(II) (CuCl₂·2H₂O), cyclopeptide ( 1 or 2), or metallopeptide system [1/Cu(II) or 2/Cu(II); 1 eq. cyclopeptide + 1 eq. […] Lysates were digested at 95 °C overnight, diluted with 1% HNO₃ to a final volume of 5 mL, and analyzed by ICP-MS. The Cu(II) content in the culture medium (3 mL) was also measured using the same technique, yielding a value of 41.46 ng. […]

Experiment [5] concerns NCI/ADR-RES (doxorubicin resistant ovarian carcinoma). As to conditions: 48 h.
Text: as §1, §2, §3, §4, §5, §6, §7, §8, §9, §10, §11, §12, §13, §14, §15, §16, §17, §18, §19
were performed with triplicate points.
b) Crystal violet cell staining
as §20, §21, §22, §23, §24, §25, §26, §27, §28, §29, §30, §31, §32, §33, §34, §35, §36
Experiment [6] relates to NCI-H460 (lung carcinoma). The following applies: 48 h.
Text: as §1, §2, §3, §4, §5, §6, §7, §8, §9, §10, §11, §12, §13, §14, §15, §16, §17, §18, §19
were performed with triplicate points.
b) Crystal violet cell staining
as §20, §21, §22, §23, §24, §25, §26, §27, §28, §29, §30, §31, §32, §33, §34, §35, §36
Experiment [7] relates to NCI/ADR-RES cells. Put plainly: Intracellular ROS generation (ROS Assay Stain 1X). As to conditions: 100 μM compound with 125 μM H2O2, 1-5 h and 24 h, 1/Cu(II) equimolar. The format is cell-based. The procedure:
Measurement of intracellular ROS levels in NCI/ADR-RES cells treated with Cu(II) ions, cyclopeptide 1, or the 1/Cu(II) metallopeptide system confirmed a time-dependent increase in the level of ROS generation. In short, after 24 h of incubation, cells were stained with ROS Assay Stain 1× and treated with 100 μM Cu(II) (CuCl2·2H2O), cyclopeptide 1, or 1/Cu(II), along with 125 μM H2O2, and fluorescence was recorded (λex = 495/λem = 520 nm) every hour for the first 5 h and again at 24 h. The experiment with the metallopeptide system was conducted by using equimolar amounts of cyclopeptide 1 and Cu(II) to prevent an excess of free copper in the medium. […] The cytotoxicity of the metallopeptide systems appears to be closely linked to their ability to enhance intracellular oxidative stress via increased ROS production, likely driven by Cu(II) accumulation within the cells.
9.2. […]
NCI/ADR-RES cells were seeded in a 96 well plate (Thermo Scientific 165305) at a density of 2,5 x 10^5 cells/ml. […] The fluorescence was measured in a microplate reader every hour for the first 5 hours, and again at 24 hours after the addition of the compounds (λex= 495 nm / λem= 520 nm). […]
Figure S15. […] Fluorescence (λex= 495 nm / λem= 520 nm) was recorded every hour for the first 5 hours, and again at 24 hours after the addition of the compounds to assess intracellular ROS generation. […]

Where two headings read alike, the source gives them in different places. *1 amine or outer side, *2 acyl side, *3 side chain or, on linkers, in order; H or OH if unused. Where a SMILES comes first, the peptide text is derived from it. [ ]: non-standard residue; d: D form. X1 = O=C(c1ccc(-c2ccc(N[*:1])cn2)nc1)[*:2]; βAla = NCCC(=O)O

Text for SF-268 (human glioma): as §1, §2, §3, §4, §5, §6, §7, §8, §9, §10, §11, §12, §13, §14, §15, §16, §17, §18, §19
were performed with triplicate points.
b) Crystal violet cell staining
as §20, §21, §22, §23, §24, §25, §26, §27, §28, §29, §30, §31, §32, §33, §34, §35, §36

Take `N=C(N)NCCC[C@@H]1NC(=O)c2ccc(nc2)-c2ccc(cn2)NC(=O)CCNC(=O)[C@H](CCCNC(=N)N)NC(=O)[C@H](CCCNC(=N)N)NC(=O)[C@H](CCCNC(=N)N)NC(=O)c2ccc(nc2)-c2ccc(cn2)NC(=O)CCNC(=O)[C@H](CCCNC(=N)N)NC(=O)[C@H](CCCNC(=N)N)NC(=O)[C@H](CCCNC(=N)N)NC(=O)c2ccc(nc2)-c2ccc(cn2)NC(=O)CCNC(=O)[C@H](CCCNC(=N)N)NC(=O)[C@H](CCCNC(=N)N)NC1=O` [compound 2, cyclo-(βAlaBpy-Arg3)3] (cyclo(RRR[βAla][X1]RRR[βAla][X1]RRR[βAla][X1])): the “E max (maximum % cell inhibition)” value is recorded as 92 ± 1% in experiment [1] (48 h); 80 ± 1% in experiment [2]; 92 ± 1% in the experiment with SF-268 (human glioma); 86 ± 1% in experiment [5]; 92 ± 1% in experiment [6]. For the same compound, the IC50 in experiment [1] (48 h) is 18 ± 1 µM; in experiment [2], over 100 µM; in the experiment with SF-268 (human glioma) it was 16 ± 1 µM; in experiment [5], 28 ± 1 µM; in experiment [6], 21 ± 1 µM. For the same compound, in experiment [3], the Kd was determined as 0.24 ± 0.1 µM. In addition, in the experiment on NCI/ADR-RES cells [4], the “intracellular Cu(II) accumulation (ICP-MS)” value was “notably lower than that of the metallopeptide systems”.

With `O.O.[Cl][Cu][Cl]` [CuCl2·2H2O, reference compound], the IC50 is 79 ± 3 µM in experiment [1] (MRC-5, 48 h, 1/Cu(II) 3 equiv Cu(II), 2/Cu(II) 5 equiv Cu(II)); over 100 µM in experiment [2] (HCT-116, MTT, 1/Cu(II) 3 equiv Cu(II), 2/Cu(II) 5 equiv Cu(II)); over 100 µM in the experiment with SF-268 (human glioma) (SF-268, crystal violet, 1/Cu(II) 3 equiv Cu(II), 2/Cu(II) 5 equiv Cu(II)); 99 ± 1 µM in experiment [5] (NCI/ADR-RES, MTT, 1/Cu(II) 3 equiv Cu(II), 2/Cu(II) 5 equiv Cu(II)); over 100 µM in experiment [6] (NCI-H460, MTT, 1/Cu(II) 3 equiv Cu(II), 2/Cu(II) 5 equiv Cu(II)). The “E max (maximum % cell inhibition)” value in experiment [1] (MRC-5, 48 h, at maximum concentration) is on record as 91 ± 1%; in experiment [2] (HCT-116, MTT, at maximum concentration), 94 ± 1%; in the experiment with SF-268 (human glioma) (SF-268, crystal violet, at maximum concentration), 87 ± 1%; in experiment [5] (NCI/ADR-RES, MTT, at maximum concentration) it was 91 ± 1%; in experiment [6] (NCI-H460, MTT, at maximum concentration), 97 ± 1%. In the experiment with NCI/ADR-RES cells [7], the “intracellular ROS levels (fluorescence)” value is given as “moderate effect”. In addition, the “intracellular Cu(II) accumulation (ICP-MS)” value in the experiment with NCI/ADR-RES cells [4] is given as “modest increase in intracellular copper”.

The record behind these values is article PMC12128024, “Copper(II) Cyclopeptides with High ROS-Mediated Cytotoxicity” (Bioconjugate Chemistry, 2025).
